Assays:
[1] = system: Normal human dermal fibroblasts; test: Collagen production promoting effect (ELISA of supernatant); format: cell-based; conditions: amount of collagen produced, % with control group taken as 100%; sample at 10 mmol/L or less, 48 hours, N=3
Procedure: Normal human dermal fibroblasts were prepared in D-MEM containing 5% (v/v) fetal bovine serum to a cell density of […] cells/well, and pre incubated on a 96-well plate for 24 hours. After removing the medium, samples prepared to a predetermined concentration in D-MEM containing 5% (v/v) fetal bovine serum were added to each well and cultured for 48 hours. After completion of the culture, the amount of free collagen in the supernatant was quantified by ELISA method. The measurement was performed with N=3.
(§1) The amount of collagen produced when the samples were measured at a concentration of 10 mmol/L or less was compared with that of the control group, and the results (% values when the control group is taken as 100%) are shown in Tables 15 to 17 based on the following criteria. • <100%: ± • 100-120%: + • 120%: ++

[2] = system: Normal human dermal fibroblasts (NHDF); test: Hyaluronic acid production promoting effect (ELISA of supernatant); format: cell-based; conditions: amount of hyaluronic acid produced, % with control group taken as 100%; sample at 10 mmol/L or less, 48 hours, N=3
Procedure: Normal human dermal fibroblasts (NHDF) were prepared in D-MEM containing 5% (v/v) fetal bovine serum to a cell density of 2.5× 10^4 cells/well, and then pre-incubated on a 96-well plate for 24 hours. After removing the medium, samples prepared in serum-free D-MEM were added to each well and cultured for 48 hours. After the culture was completed, the amount of hyaluronic acid in the supernatant was quantified by ELISA method. The measurement was performed with N=3.
as §1, with “of hyaluronic acid” for “of collagen”, “Tables 18” for “Tables 15”, “to 20” for “to 17”, “• 120-150%:” for “• 120%:”, “++ • 150%: +++” for “++”

[3] = Stability test (residual rate by HPLC, odor, coloring); format: physicochemical; conditions: 1% aqueous solution; for Coloring / Odor: total score of 10 panelists
Procedure: With a dilute potassium hydroxide aqueous solution, 1% aqueous solution of each test sample was adjusted to pH 6, placed in a 50 mL screw tube, sealed, […], and then subjected to HPLC measurement (using a liquid chromatograph manufactured by Shimadzu Corporation) to determine the residual rate from the peak area. The residual rate, odor, and coloring degree were evaluated according to the following methods and criteria.
Residual rate: • ⊚: 90% or more • ◯: 80% or more, less than 90% • Δ: 60% or more, less than 80% • x: 20% or more, less than 60% • xx: Less than 20%
Evaluation was made by 10 panelists according to the following criteria. • 3: Almost odorless • 2: There is a slight strange odor. • 1: A strong odor is detected.
Based on the evaluation results, the following classification was made: • ⊚: Total score of 10 panelists is 25 or more • ◯: Total score of 10 panelists is 20-24 • Δ: Total score of 10 panelists is 16-19 • x: The total score of 10 panelists is 15 or less
Evaluation was made by 10 panelists according to the following criteria. • 3: Almost no change compared to immediately after preparation. • 2: Color changes compared to immediately after preparation. • 1: Strongly colored compared to immediately after preparation.
Based on the evaluation results, the following classification was made: • ◯: Total score of 10 panelists is 25 or more • Δ: Total score of 10 panelists is 16-24 • x: The total score of 10 panelists is 15 or less

B16 melanoma 4A5 cells = test: Melanin production inhibitory effect (theophylline-induced melanin production); format: cell-based, mouse; conditions: melanin production inhibition rate, sample at a concentration of 10 mM or less, 3 days culture, theophylline 1 mmol/L, N=4
Procedure: As a test of the whitening effect, the effect on theophylline-induced melanin production in B16 melanoma 4A5 cells was evaluated for the ascorbic acid derivatives of the present invention according to the following procedure. A similar evaluation was also performed for a known ascorbic acid derivative for comparison. The results are shown in Tables 9 to 11. • (1) B16 mouse melanoma 4A5 cells were seeded in a 48-well plate at a cell density of 8.0×10^3 cells/well. • (2) After culturing for 24 hours in Dulbecco's modified Eagle's medium (manufactured by SIGMA, hereinafter abbreviated as “D-MEM”) containing 10% fetal bovine serum, the medium was replaced with D-MEM containing 10% fetal bovine serum containing theophylline (final concentration 1 mmol/L) and a specified concentration of a sample. • (3) After culturing for 3 days in the presence of the sample, the medium was removed using an aspirator, distilled water was added, and the cells were disrupted by ultrasonication. • (4) The amount of protein was then quantified using a BCA protein assay kit (manufactured by PIERCE), and the amount of melanin produced was measured by an alkali solubilization method. Sodium hydroxide was added to the cell lysate to a final concentration of 1 mol/L, and the solution was dissolved by heating (60° C., 30 minutes), thereafter the absorbance at 405 nm was measured using a microplate reader. The amount of melanin was calculated from a calibration curve prepared using synthetic melanin (SIGMA) as a standard. The amount of melanin per unit protein was calculated by dividing the amount of melanin by the amount of protein. • (5) The melanin production inhibition rate was calculated using the following formula.
[In the formula, A represents the amount of melanin per unit protein (g/g) when the sample was added, B represents the amount of melanin per unit protein (g/g) in the normal group, and C represents the amount of melanin per unit protein (g/g) in the control group.]
The melanin production inhibition rate when the sample was measured at a concentration of 10 mM or less is expressed as follows. The measurement was performed with N=4. • <20%: ± • 20-40%: + • 40-60%: ++ • 60-100%: +++

[4] = pH 6, stored at 50° C., four weeks later
[5] = pH 6, stored at 50° C., two weeks later

Row | Residual rate ([3]; pH 6, 50° C., initial) | Residual rate [3, 4] | Residual rate [3, 5] | Compound | Collagen production promoting effect [1] | Hyaluronic acid production promoting effect [2] | Coloring ([3]; pH 6, 50° C., initial) | Odor ([3]; pH 6, 50° C., initial) | Coloring [3, 4] | Odor [3, 4] | Coloring [3, 5] | Odor [3, 5] | Melanin production inhibition effect (B16 melanoma 4A5 cells)
1 | ⊚ (⊚: 90% or more) | ⊚ (⊚: 90% or more) | ⊚ (⊚: 90% or more) | CCCCCCCCC(O)COC1=C(OCC(C)(C)O)C(=O)O[C@@H]1[C@@H](O)CO (stereo partly drawn) [Synthesis Example 36, 2-O-(2-hydroxyisobutyl)-3-O-(2-hydroxydecyl) ascorbic acid] | + (100-120%: +) | ++ (120-150%: ++) | ⊚ | ◯ (◯: Total score of 10 panelists is 20-24) | ◯ (◯: Total score of 10 panelists is 25 or more) | ◯ (◯: Total score of 10 panelists is 20-24) | ◯ (◯: Total score of 10 panelists is 25 or more) | ◯ (◯: Total score of 10 panelists is 20-24) | ++ (40-60%: ++)
2 | ⊚ (⊚: 90% or more) | ⊚ (⊚: 90% or more) | ⊚ (⊚: 90% or more) | CCCCCCCCCCCCCCC(O)COC1=C(OCC(C)(C)O)C(=O)O[C@@H]1[C@@H](O)CO (stereo partly drawn) [Synthesis Example 37, 2-O-(2-hydroxyisobutyl)-3-O-(2-hydroxyhexadecyl) ascorbic acid] | + (100-120%: +) | ++ (120-150%: ++) | ◯ (◯: Total score of 10 panelists is 25 or more) | ⊚ (⊚: Total score of 10 panelists is 25 or more) | ◯ (◯: Total score of 10 panelists is 25 or more) | ◯ (◯: Total score of 10 panelists is 20-24) | ◯ (◯: Total score of 10 panelists is 25 or more) | ◯ (◯: Total score of 10 panelists is 20-24) | + (20-40%: +)
3 | ⊚ (⊚: 90% or more) | ⊚ (⊚: 90% or more) | ⊚ (⊚: 90% or more) | CCCCOCC(O)COC1=C(OCC(C)(C)O)C(=O)OC1C(O)CO (stereo not drawn) [Synthesis Example 14, 2-O-(2-hydroxyisobutyl)-3-O-(2-hydroxy-3-O-butyl) ascorbic acid] | ++ (120%: ++) | ++ (120-150%: ++) | ◯ (◯: Total score of 10 panelists is 25 or more) | ⊚ (⊚: Total score of 10 panelists is 25 or more) | ◯ (◯: Total score of 10 panelists is 25 or more) | ◯ (◯: Total score of 10 panelists is 20-24) | ◯ (◯: Total score of 10 panelists is 25 or more) | ⊚ (⊚: Total score of 10 panelists is 25 or more) | ++ (40-60%: ++)
4 | ⊚ (⊚: 90% or more) | ⊚ (⊚: 90% or more) | ⊚ (⊚: 90% or more) | CCCCCCCCC(O)COC1=C(OCC(C)(C)O)[C@@H]([C@@H](O)CO)OC1=O (stereo partly drawn) [Synthesis Example 41, 3-O-(2-hydroxyisobutyl)-2-O-(2-hydroxydecyl) ascorbic acid] | + (100-120%: +) | ++ (120-150%: ++) | ◯ (◯: Total score of 10 panelists is 25 or more) | ◯ (◯: Total score of 10 panelists is 20-24) | ◯ (◯: Total score of 10 panelists is 25 or more) | ◯ (◯: Total score of 10 panelists is 20-24) | ◯ (◯: Total score of 10 panelists is 25 or more) | ◯ (◯: Total score of 10 panelists is 20-24) | ++ (40-60%: ++)
5 | ⊚ (⊚: 90% or more) | ⊚ (⊚: 90% or more) | ⊚ (⊚: 90% or more) | CCCCCCCCCCCCCCOC1=C(OCC(C)(C)O)[C@@H]([C@@H](O)CO)OC1=O [Synthesis Example 24, 2-O-tetradecyl-3-O-(2-hydroxyisobutyl) ascorbic acid] | ++ (120%: ++) | ++ (120-150%: ++) | ◯ (◯: Total score of 10 panelists is 25 or more) | ◯ (◯: Total score of 10 panelists is 20-24) | ◯ (◯: Total score of 10 panelists is 25 or more) | ◯ (◯: Total score of 10 panelists is 20-24) | ◯ (◯: Total score of 10 panelists is 25 or more) | ◯ (◯: Total score of 10 panelists is 20-24) | +++ (60-100%: +++)
6 | ⊚ (⊚: 90% or more) | ⊚ (⊚: 90% or more) | ⊚ (⊚: 90% or more) | CC(C)(O)COC1=C(OCC(O)c2ccccc2)C(C(O)CO)OC1=O (stereo not drawn) [Synthesis Example 38, 2-O-(2-hydroxyisobutyl)-3-O-(2-hydroxyethylbenzene) ascorbic acid] | ++ (120%: ++) | ++ (120-150%: ++) | ⊚ | ◯ (◯: Total score of 10 panelists is 20-24) | ◯ (◯: Total score of 10 panelists is 25 or more) | ◯ (◯: Total score of 10 panelists is 20-24) | ◯ (◯: Total score of 10 panelists is 25 or more) | ◯ (◯: Total score of 10 panelists is 20-24) | ++ (40-60%: ++)
7 | ⊚ (⊚: 90% or more) | ⊚ (⊚: 90% or more) | ⊚ (⊚: 90% or more) | CCCCCCCCCCCCOCC(O)COC1=C(OCC(C)(C)O)C(C(O)CO)OC1=O (stereo not drawn) [Synthesis Example 31, 2-O-(2-hydroxy-3-O-dodecyl)-3-O-(2-hydroxyisobutyl) ascorbic acid] | ++ (120%: ++) | ++ (120-150%: ++) | ◯ (◯: Total score of 10 panelists is 25 or more) | ⊚ (⊚: Total score of 10 panelists is 25 or more) | ◯ (◯: Total score of 10 panelists is 25 or more) | ◯ (◯: Total score of 10 panelists is 20-24) | ◯ (◯: Total score of 10 panelists is 25 or more) | ⊚ (⊚: Total score of 10 panelists is 25 or more) | + (20-40%: +)
